Values quoted from earlier work, collected in patent publication US20090221469A1, “USE OF SOY KEFIR POWDER FOR REDUCING PAIN, BLOOD PRESSURE AND INFLAMMATION” (KCLM RESEARCH IN NUTRITION INC., priority 2006, published 2009).

Tests used:
[1] = tested on: patients with neuralgia or moderate to severe nonmalignant pain; conditions: treatment of neuralgia (Stacey et al., 2004)

Row | Compound | half-lives [h] | SF-36 improvement of mean scores for bodily pain [1] [points]
1 | isoflavones | 4 to 8 | 
2 | NCC1(CC(=O)O)CCCCC1 [gabapentin] |  | 9.2
